In ChEMBL document CHEMBL1131258, “Synthesis and glutathione S-transferase structure-affinity relationships of nonpeptide and peptidase-stable glutathione analogues” (J Med Chem, 1998):

System: glutathione S-transferase (Schistosoma japonicum)
Assay: Affinity towards recombinant Glutathione S-transferase (GST) Enzyme; NA indicates No affinity; call rule not given here

**Q.** Which IC50 does the source give for `O=C(O)CC/C=C/C(CS)CCCCC(=O)O` (stereo not given) here?
**A.** Not Active

**Q.** For `O=C(O)CCCCCC(CS)CCCCC(=O)O` (stereo not given), which IC50 is on record?
**A.** Not Active

**Q.** `O=C(O)CC/C=C/C(CO)CCCCC(=O)O` (stereo not given) was tested. Which IC50 did it give?
**A.** Not Active

**Q.** `O=C(O)CCCCCCC(CS)CCCC(=O)O` (stereo not given) was tested. Which IC50 did it give?
**A.** Not Active

**Q.** For `O=C(O)CCCCC(CS)CCCCC(=O)O`, which IC50 is on record?
**A.** Not Active
